Laboratory results taken from patent US20120322726A1, “THERAPEUTIC AGENT FOR EATING DISORDERS” (MORINAGA MILK INDUSTRY CO., LTD., priority 2010, published 2012).

Legend:
KK-Ay mice [1] = assay: Test Example 3: amount of livestock feed taken by hyperphagia model mice; type: in vivo
Method: The object of this test was to confirm that the casein hydrolysate according to the present invention has a therapeutic effect against the hyperphagia.
The product according to the present invention: The casein hydrolysate according to the present invention, prepared by the method described in EXAMPLE 1, was diluted with the distilled water so that the concentration of the hydrolysate would be 5 mg/ml.
The precipitate fraction: Sample 2 in the Test Example 1 was diluted with the distilled water into 5 mg/ml.
Whole casein hydrolysate: The rennet casein (Fonterra Co-operative Group Limited, protein content 80%) used in EXAMPLE 1 was digested with pepsin in the same way as in EXAMPLE 1, and then, without centrifuging, diluted with the distilled water for injection so that the concentration of the hydrolysate would be 5 mg/ml.
GMP (glycol-macropeptide): A commercially available GMP (MG Nutritionals) was diluted with the distilled water for injection so that the concentration of GMP would be 5 mg/ml. […]
After pre-feeding with said livestock feed for 10 days, test animals were divided into 8 groups each including 8 animals so that they would have the nearly equal body weight and take the nearly equal amount of livestock feed. […] The amount of livestock feed taken by the animal was determined once a week. […]

KK-Ay mice [2] = assay: Test Example 4: blood glucose level of hyperphagia model mice; type: in vivo
Excerpt: The object of this test was to confirm that the casein hydrolysate according to the present invention has an effect of decreasing the blood glucose level of the patient with hyperphagia.
The same one as in EXAMPLE 3 was used.
A commercially available livestock feed containing no protein from milk (Nihon Nosan, trade name: MR Stock) was used. As drinking water, tap water (city water) was used.
As animal model for hyperphagia, KK-Ay mice (male, 5 weeks old, CLEA Japan, Inc.) were used.
After pre-feeding with said livestock feed for 10 days, test animals were divided into 8 groups each including 8 animals so that they would have the nearly equal body weight and take the nearly equal amount of livestock feed. The animals of each group could take the livestock feed and water freely. During 5 days of one week, 0.5 ml of the sample was administered to each animal per day using a sonde. The test was performed for 5 weeks. The blood glucose level was determined once a week, using a glucose kit for self checking (Johnson & Johnson).
Relative blood glucose level is an average blood glucose level of each group when the average blood glucose level of the control group is considered 1.

[3] = 5 mg/ml, 0.5 ml per day, 5 weeks after starting of administration

“κ-casein: commercially available κ-casein (Sigma)” was tested, and the “change of amount of livestock feed taken compared to the control” value (KK-Ay mice [1]; [3]) was “wasn't a significant effect”, the “Relative amount of livestock feed ingested 5 weeks later” value (KK-Ay mice [1]; 0.5 ml of 5 mg/ml sample per day by sonde, 5 days of one week, 5 weeks, control group = 1, * p < 0.05) was 0.990 and the “change of blood glucose level compared to the control” value (KK-Ay mice [2]; [3]) was “wasn't a significant effect”. The “Relative blood glucose level 5 weeks later” value (KK-Ay mice [2]; Table 3 (text: relative blood glucose level), 0.5 ml of 5 mg/ml sample per day, 5 days of one week, 5 weeks, control group = 1, * p < 0.05) was 0.934.
